Experimental data from ChEMBL document CHEMBL1201862, “PubChem BioAssay data set” (2004).
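Five compound concentrations were applied to cells in 96-well plates for 48 hours; endpoints were derived by simple linear interpolation of the resulting dose-response curve. At the GI50, growth is halved.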 The source made the active and inactive calls. Rule as the data show it: active = GI50 up to about 1.1 µM and inactive = higher.

Legend:
Test in all cases: NCI-60 cell line screen, 48 h
KM-20L2 = tested on: KM-20L2
EKVX = tested on: EKVX
SK-MEL-28 = tested on: SK-MEL-28
DMS-114 = tested on: DMS-114
A498 = tested on: A498
SK-OV-3 = tested on: SK-OV-3
SN12C = tested on: SN12C
RXF 631 = tested on: RXF 631
OVCAR-8 = tested on: OVCAR-8
LOX IMVI = tested on: LOX IMVI
U-251 = tested on: U-251
COLO 205 = tested on: COLO 205
NCI-H23 = tested on: NCI-H23
SW-620 = tested on: SW-620
RXF 393 = tested on: RXF 393
HL-60 = tested on: HL-60
OVCAR-5 = tested on: OVCAR-5
M14 = tested on: M14
SK-MEL-2 = tested on: SK-MEL-2
A549 = tested on: A549
HOP-18 = tested on: HOP-18
DLD-1 = tested on: DLD-1
UACC-257 = tested on: UACC-257
SF-539 = tested on: SF-539
UACC-62 = tested on: UACC-62
HT-29 = tested on: HT-29
IGROV-1 = tested on: IGROV-1
TK-10 = tested on: TK-10
Malme-3M = tested on: Malme-3M
HCC 2998 = tested on: HCC 2998
RPMI-8226 = tested on: RPMI-8226
CAKI-1 = tested on: CAKI-1
SNB-75 = tested on: SNB-75
OVCAR-4 = tested on: OVCAR-4
SK-MEL-5 = tested on: SK-MEL-5
SF-268 = tested on: SF-268
DMS-273 = tested on: DMS-273
ACHN = tested on: ACHN
SNB-19 = tested on: SNB-19
SF-295 = tested on: SF-295
UO-31 = tested on: UO-31
LXFL 529 = tested on: LXFL 529
NCI-H522 = tested on: NCI-H522
K562 = tested on: K562
SNB-78 = tested on: SNB-78
KM12 = tested on: KM12
HCT-15 = tested on: HCT-15
MOLT-4 = tested on: MOLT-4
XF498 = tested on: XF498
CCRF-CEM = tested on: CCRF-CEM
HCT-116 = tested on: HCT-116
786-0 = tested on: 786-0
HOP-92 = tested on: HOP-92
OVCAR-3 = tested on: OVCAR-3
NCI-H226 = tested on: NCI-H226
SR = tested on: SR
NCI-H460 = tested on: NCI-H460
HOP-62 = tested on: HOP-62
M19-MEL = tested on: M19-MEL

Measured: GI50

O=C(NN1C(=O)CSC1c1ccc(Cl)c(Cl)c1)c1ccncc1 (stereo not drawn)
72.6 µM: HCT-15
active: HOP-18 < 0.01 µM
inactive: KM-20L2 74.6 µM | EKVX > 100 µM | SK-MEL-28 > 100 µM | DMS-114 30.6 µM | A498 29.9 µM | SK-OV-3 > 100 µM | SN12C 75.9 µM | RXF 631 94.4 µM | OVCAR-8 86.7 µM | LOX IMVI 66.4 µM | U-251 > 100 µM | COLO 205 > 100 µM | NCI-H23 84.7 µM | SW-620 > 100 µM | RXF 393 58.3 µM | HL-60 37.8 µM | OVCAR-5 > 100 µM | M14 44.5 µM | SK-MEL-2 83.8 µM | A549 58.1 µM | DLD-1 38.6 µM | UACC-257 54.2 µM | SF-539 > 100 µM | UACC-62 31.8 µM | HT-29 60.1 µM | IGROV-1 34.4 µM | TK-10 57.7 µM | Malme-3M 87.7 µM | HCC 2998 46.2 µM | RPMI-8226 42.9 µM | CAKI-1 > 100 µM | SNB-75 > 100 µM | OVCAR-4 54.1 µM | SK-MEL-5 46.9 µM | SF-268 78.3 µM | DMS-273 64.3 µM | ACHN 38.4 µM | SNB-19 > 100 µM | SF-295 54.3 µM | UO-31 85.1 µM | LXFL 529 71.6 µM | NCI-H522 72.8 µM | K562 37.8 µM | SNB-78 64.6 µM | KM12 38.1 µM | MOLT-4 67.8 µM | XF498 48 µM | CCRF-CEM 77.3 µM

CCN(CC)CCCNc1nccc2c(C)c3[nH]c4ccncc4c(=O)c3cc12
8.71 µM: HCT-15
active: DMS-114 0.494 µM | OVCAR-8 0.557 µM | HCT-116 0.514 µM | LOX IMVI 0.975 µM | 786-0 0.977 µM | RXF 393 0.558 µM | SR 0.13 µM | OVCAR-4 0.604 µM | SF-268 0.643 µM | NCI-H522 0.52 µM | MOLT-4 0.33 µM | CCRF-CEM 0.746 µM
inactive: KM-20L2 4.11 µM | EKVX 5.68 µM | SK-MEL-28 3.27 µM | A498 7.28 µM | SK-OV-3 3.77 µM | SN12C 1.5 µM | RXF 631 1.92 µM | U-251 2.19 µM | COLO 205 2.55 µM | NCI-H23 1.95 µM | SW-620 1.84 µM | HOP-92 1.75 µM | OVCAR-3 1.8 µM | HL-60 2.79 µM | OVCAR-5 3.72 µM | M14 2.84 µM | SK-MEL-2 2.89 µM | A549 3.01 µM | HOP-18 2.52 µM | DLD-1 1.79 µM | UACC-257 6.84 µM | SF-539 2.45 µM | UACC-62 1.53 µM | HT-29 1.32 µM | IGROV-1 2.93 µM | TK-10 3.18 µM | Malme-3M 3.83 µM | HCC 2998 2.37 µM | RPMI-8226 2.64 µM | NCI-H226 2.24 µM | NCI-H460 1.71 µM | CAKI-1 1.91 µM | SNB-75 2.24 µM | SK-MEL-5 3.57 µM | DMS-273 2.19 µM | ACHN 1.8 µM | SNB-19 2.87 µM | SF-295 3.64 µM | UO-31 9.79 µM | LXFL 529 1.48 µM | K562 2.61 µM | SNB-78 2.2 µM | KM12 3.52 µM | XF498 2.46 µM | HOP-62 3.11 µM

COc1ccc2c(c1)[n+]([O-])c(C(=O)CC(=O)C(=O)Nc1cccc(C)c1C)c(C)[n+]2[O-]
inactive: KM-20L2 > 100 µM | EKVX > 100 µM | SK-MEL-28 > 100 µM | DMS-114 > 100 µM | SK-OV-3 > 100 µM | SN12C > 100 µM | RXF 631 > 100 µM | OVCAR-8 > 100 µM | HCT-116 > 100 µM | LOX IMVI > 100 µM | U-251 > 100 µM | 786-0 > 100 µM | NCI-H23 > 100 µM | SW-620 > 100 µM | HOP-92 > 100 µM | OVCAR-3 > 100 µM | RXF 393 > 100 µM | HL-60 > 100 µM | OVCAR-5 > 100 µM | M14 > 100 µM | SK-MEL-2 > 100 µM | A549 > 100 µM | HOP-18 > 100 µM | DLD-1 > 100 µM | UACC-257 > 100 µM | M19-MEL > 100 µM | SF-539 > 100 µM | UACC-62 > 100 µM | HT-29 > 100 µM | IGROV-1 > 100 µM | TK-10 > 100 µM | Malme-3M > 100 µM | HCC 2998 > 100 µM | RPMI-8226 > 100 µM | NCI-H226 > 100 µM | SR > 100 µM | NCI-H460 > 100 µM | CAKI-1 > 100 µM | OVCAR-4 > 100 µM | SK-MEL-5 > 100 µM | SF-268 > 100 µM | ACHN > 100 µM | SNB-19 > 100 µM | SF-295 > 100 µM | UO-31 > 100 µM | LXFL 529 > 100 µM | NCI-H522 > 100 µM | K562 > 100 µM | SNB-78 > 100 µM | KM12 > 100 µM | MOLT-4 > 100 µM | XF498 > 100 µM | CCRF-CEM > 100 µM | HOP-62 > 100 µM
> 100 µM: HCT-15
